Assay results published in patent publication US20240026261A1, “ENGINEERING OF ORGANOID CULTURE FOR ENHANCED ORGANOGENESIS IN A DISH” (THE TRUSTEES OF THE UNIVERSITY OF PENNSYLVANIA, priority 2020, published 2024).

Key:
Type in all cases: cell-based, mouse
intestinal organoids = assay: Intracellular calcium imaging (Fluo-4) of intestinal organoids
Description: To assess the level of intracellular calcium, the organoids were labeled with a fluorescent calcium indicator dye (Fluo-4) and monitored their fluorescence in real-time. Given the multicellular complexity of organoids, the mean fluorescence intensity was measured from representative organoids selected for analysis. Upon treatment with 100 μM ATP, organoids in the device increased their fluorescence by approximately 1.6-fold within 60 seconds, which was followed by a gradual decrease to the baseline level (FIG. 4E).
For calcium imaging, the organoid media were removed from the culture wells, and the organoid constructs were washed once in live-cell imaging solution (LCIS). The organoids were then loaded with Fluo-4 calcium imaging solution (F10489, ThermoFisher Scientific, USA) prepared according to the manufacturer's protocol. The samples were incubated at 37° C. for 30 minutes, which was followed by another 30-minute incubation at room temperature. Subsequently, the Fluo-4 solution was removed, and the organoids were washed once with LCIS. All samples were kept in fresh LCIS until use. An inverted epi-fluorescence microscope (Axio Observer D1, Zeiss, Germany) was used to visualize calcium staining of organoids upon stimulation with 100 μM of ATP (A1852, Sigma, USA) and 50 mM of glucose (G7021, Sigma, USA).
For ratiometric analysis of changes in Ca2+ levels, fluorescence intensity for each or-ganoid was measured during an experiment, and values were normalized by their resting intensities using the equation below.
ΔCa^2+=(F−Frest)/Frest (1)

[1] = system: co-culture of intestinal organoids and primary intestinal fibroblasts (fibronectin); assay: Intestinal fibrosis model in OCTOPUS, fibronectin (FN) deposition by immunofluorescence
Description: (§1) The difference between the two groups became evident within 3 days of treatment and remained statistically significant throughout the culture period (FIG. 6I). […] Consistent with the analysis of fibroblast activation and proliferation (FIG. 6E, FIG. 6F), from the comparison between co-culture and monoculture models, intestinal organoids potentiate the fibrogenic effect of TGF-β and promote FN production by fibroblasts (FIG. 6I, FIG. 6J) were identified.
(§2) First, fibrotic intestinal tissue constructs in OCTOPUS were generated by forming co-culture organoids over 5 days and exposing them to TGF-β for another 7 days as described above (day 5-day 12). These constructs were then treated with clinically relevant concentrations of the drugs for 48 hours (day 13-day 14) within the therapeutic window identified by viability assessment (data not shown). […] At 0.1 mM, Pirfenidone was effective for altering the contractile phenotype of fibroblasts, as illustrated by 50% reduction in αSMA compared to the untreated control (FIGS. 6L to 6O).
(§3) To form an intestinal fibrosis model suitable for, e.g. drug testing, in OCTOPUS, mouse intestinal stem cells were mixed with 1×10^6 cells/ml of mouse intestinal fibroblasts in Matrigel (356255, Corning, USA). This cell-containing hydrogel solution was injected into the device to form microtissue constructs in the organoid culture chambers. After gelation for 15 minutes in a regular cell culture incubator, 750 μl of IntestiCult™ organoid growth medium (06005, STEMCELL Technologies, Canada) was added into each well and maintained for 5 days to induce intestinal organoid development and fibroblast proliferation. During this period, the media were replenished every other day. To induce fibrosis, 1 ng/ml of TGF-β (T5050, Sigma, USA) was added to the culture wells on day 5 and maintained for additional 7 days. Drug administration occurred on day 12 using commercially available Pirfenidone (P1871, TCI America, USA) and Nintedanib (S1010, Selleckchem, USA) at specified concentrations. The fibrosis model was treated with drugs for 48 hours, after which changes in its fibrotic phenotype were analyzed using the methods described herein.
(§4) For immunofluorescence staining, cells in OCTOPUS were washed with PBS twice, fixed with 4% paraformaldehyde (Electron Microscopy Sciences, USA) for 15 minutes at room temperature, and washed again twice with PBS. The cells were then permeabilized with 0.1% Triton X-100 (Sigma) in PBS for 3 minutes and exposed to blocking buffer composed of PBS and 3% bovine serum albumin (BSA; Sigma) for overnight at 4° C. […]

[2] = system: co-culture of intestinal organoids and primary intestinal fibroblasts (released fibronectin); assay: Intestinal fibrosis model in OCTOPUS, released fibronectin by ELISA of conditioned media
Description: as §1, §2
For the analysis of fibronectin production in the intestinal fibrosis model, a mouse fibronectin ELISA kit (ab108849, abcam, USA) was used. The media in the wells were collected at specified time points and assayed using manufacturer-provided protocols. First, 50 μl of standard or device-collected samples were added into each well and incubated for 2 hours at room temperature. Subsequently, the wells were washed 5 times with 300 μl of wash buffer solution and then incubated with fibronectin antibody for 1 hour. […]
For all ELISA assays, a multimode plate reader (M200, Tecan, Switzerland) was used to measure the optical density of samples. […]
(§5) To form an intestinal fibrosis model suitable for, e.g. drug testing, in OCTOPUS, mouse intestinal stem cells were mixed with 1×10^6 cells/ml of mouse intestinal fibroblasts in Matrigel (356255, Corning, USA). […] The fibrosis model was treated with drugs for 48 hours, after which changes in its fibrotic phenotype were analyzed using the methods described herein.

[3] = system: co-culture microtissues of intestinal organoids and fibroblasts; assay: Intestinal fibrosis model in OCTOPUS, tissue stiffness by atomic force microscopy; conditions: for stiffness of the TGF-β-treated fibrotic tissues (AFM): administered at higher doses
Description: To further validate the fibrotic phenotype of the model, the stiffness of the TGF-β-treated microtissues was measured by using atomic force microscopy (AFM). This measurement was greatly facilitated by the open-top design of OCTOPUS that allowed direct access of the AFM probe to the tissue constructs in the culture chambers (FIG. 6K). […] As expected, treatment of this model with TGF-01 led to a marked increase in the extent of tissue stiffening and generated co-culture constructs that were 2.9 times stiffer than those in the untreated devices (FIG. 6K).
The average stiffness measured in the fibrosis model treated with 0.5 mM Pirfenidone (3.5 kPa) closely matched that of normal tissue constructs (3.3 kPa), illustrating the potential of Pirfenidone to normalize the mechanical property of fibrotic intestinal tissues in the model system.
as §3
Atomic force microscopy (AFM, MFP-3D-BIO, Asylum) was used to measure the stiffness of hydrated microtissues in the intestinal fibrosis models. A gold-coated cantilever (SCONT tip, NANOSENSORS) with a spring constant of 14.58 pN/nm and a pyramid indenter was used to obtain force-indentation curves. The tissue samples in the open chambers were used directly without any modification. For the AFM measurement, the OCTOPUS insert containing microtissue was removed from the plate and mounted on the instrument. After wetting the microtissue with a drop of PBS, its mechanical property was measured with the scanning probe. Young's modulus was calculated from the force indentation data using the Atomic J software.

[4] = system: co-culture of intestinal organoids and primary intestinal fibroblasts (αSMA); assay: TGF-β-induced intestinal fibrosis model in OCTOPUS, αSMA immunofluorescence (fibroblast activation); conditions: for increase in level of αSMA expression in comparison to untreated tissues: TGF-β 1 ng/ml from day 5
Description: To this end, OCTOPUS was used to set up a co-culture of intestinal organoids and primary intestinal fibroblasts in the same hydrogel scaffold and generate a multicellular construct reminiscent of the intestinal epithelium and its underlying stroma in vivo (FIG. 6A). In this mixed co-culture configuration, the intestinal progenitor cells embedded in Matrigel developed into or-ganoids over the course of 5 days or so, during which fibroblasts began to spread and proliferate around the nascent organoids. […] Prolonged culture in this device led to the formation of microtissues densely populated with enlarged organoids and fibroblasts (FIG. 6C).
(§6) To simulate the scenario of using this system to assess intestinal fibrosis in a conventional laboratory setting, a common technique widely used for in vitro modeling of fibrosis, which was to treat the co-culture construct with transforming growth factor (TGF)-β, were used. TGF-β plays a central role in the pathogenesis of fibrosis in the intestine and other organs by inducing the activation of fibroblasts and their transdifferentiation into myofibroblasts, which are the key effector cells that drive fibrogenesis. To trigger fibrogenic responses, the model was treated with TGF-β at 1 ng/ml from day 5 to day 12. Exposure of the intestinal microtissue to this condition indeed caused the fibroblasts to acquire the contractile phenotype of myofibroblasts, as evidenced by robust expression of alpha-smooth muscle actin (αSMA) (FIG. 6D). In comparison to untreated tissues, the level of expression increased by more than 1.9- and 2.9-fold by day 8 and day 12, respectively (FIG. 6E).
as §2, §3, §4

[5] = system: primary intestinal fibroblasts co-cultured with intestinal organoids; assay: Intestinal fibrosis model in OCTOPUS, fibroblast proliferation; conditions: TGF-β 1 ng/ml from day 5; by day 12
Description: as §6, §5

[6] = 0.5 μM, 48 hours, to levels comparable to Pirfenidone at 0.5 mM
[7] = higher-dose (0.5 mM) treatment, 48 hours

Nc1ncnc2c1ncn2[C@@H]1O[C@H](COP(=O)(O)OP(=O)(O)OP(=O)(O)O)[C@@H](O)[C@H]1O [ATP]
calcium response of the conventional model (Matrigel drop) (intestinal organoids; 100 μM, hydrogel drop culture, versus OCTOPUS): noticeably slower and occurred to a lesser extent
increase in Fluo-4 fluorescence (intracellular calcium) (intestinal organoids; 100 μM, organoids in OCTOPUS, within 60 seconds): approximately 1.6 fold

O=C[C@H](O)[C@@H](O)[C@H](O)[C@H](O)CO [D-glucose]
increase in intracellular calcium in OCTOPUS (intestinal organoids; 50 mM, organoids in OCTOPUS): greater than that induced by ATP stimulation

COC(=O)c1ccc2c(c1)NC(=O)/C2=C(\Nc1ccc(N(C)C(=O)CN2CCN(C)CC2)cc1)c1ccccc1 [Nintedanib]
FN accumulation [1, 6]: decreased substantially
concomitant reduction in the concentration of released FN (ELISA) ([2]; 0.5 μM, 48 hours): not observed
stiffness of the TGF-β-treated fibrotic tissues (AFM) ([3]; 48 hours): significantly decreased
fibroblast activation (αSMA) [4, 6]: decreased substantially
effects on the fibrosis model (αSMA, FN) ([4]; lower dose 0.1 μM, 48 hours): failed to exert significant effects

Cc1ccc(=O)n(-c2ccccc2)c1 [Pirfenidone]
immunofluorescence of FN in drug-treated fibrotic constructs ([1]; 48 hours treatment): significantly decreased
level of FN production versus normal group (healthy intestinal tissue) [1, 7]: statistically indistinguishable
amount of FN released from the model (ELISA) ([2]; 48 hours treatment): reduced
average stiffness of the treated fibrosis model ([3]; 0.5 mM, 48 hours, normal tissue constructs 3.3 kPa): 3.5 kPa
stiffness of the TGF-β-treated fibrotic tissues (AFM) ([3]; 48 hours): significantly decreased
reduction in αSMA compared to the untreated control ([4]; 0.1 mM, 48 hours, TGF-β-induced fibrotic constructs): 50%
expression of αSMA ([4]; dose increased to 0.5 mM, 48 hours): further decreased
level of αSMA expression versus normal group (healthy intestinal tissue) [4, 7]: statistically indistinguishable

transforming growth factor (TGF)-β [TGF-β]
FN in the pericellular regions of fibroblasts (immunostaining) compared to untreated tissues ([1]; TGF-β 1 ng/ml, day 5 to day 12): substantially increased
released FN (ELISA of conditioned media) ([2]; TGF-β 1 ng/ml, day 5 to day 12): higher levels of released FN
average tissue stiffness ([3]; TGF-β-treated co-culture constructs, AFM): 10.1 kPa
stiffness of co-culture constructs relative to untreated devices ([3]; TGF-β-treated, AFM, 14 days culture): 2.9 times
fibroblast proliferation, cells compared to the untreated control group [5]: approximately twice as many cells
increase in level of αSMA expression in comparison to untreated tissues ([4]; by day 8): more than 1.9 fold
increase in level of αSMA expression in comparison to untreated tissues ([4]; by day 12): > 2.9 fold
